System: patients with advanced renal cell carcinoma
Conditions: in vivo
Experimental: Treatment modifications, including interruptions and dose reductions, were allowed to manage adverse events. […] Patients were allowed to continue study treatment beyond radiographic progression at the discretion of the investigator. On-study crossover between treatment groups was not permitted. Safety evaluations, including physical examination, vital signs, and laboratory assessments, were conducted every 2 weeks for the first 8 weeks and then every 4 weeks thereafter. ECG assessments were performed every 4 weeks for the first 8 weeks and then every 12 weeks. A safety follow-up visit was scheduled 30 days after treatment discontinuation. Adverse events were assessed by investigators and graded according to CTCAE version 4.0.
Safety analyses were limited to patients who received any amount of study treatment.

## CO[C@H]1C[C@@H]2CC[C@@H](C)[C@@](O)(O2)C(=O)C(=O)N2CCCC[C@H]2C(=O)O[C@H]([C@H](C)C[C@@H]2CC[C@@H](OCCO)[C@H](OC)C2)CC(=O)[C@H](C)/C=C(\C)[C@@H](O)[C@@H](OC)C(=O)[C@H](C)C[C@H](C)/C=C/C=C/C=C/1C [everolimus]
human
  Grade 3 and 4 adverse events: Diarrhea, %: 3%
  Grade 3 or 4 Adverse Events: Diarrhea, %: (3) %
  Grade 3 or 4 Adverse Events: Hypokalaemia, %: (2) %
  Grade 3 or 4 Adverse Events: PPES, %: (1) %
  Grade 3 or 4 adverse events: 193 (60%) n (%)
  Grade 5 adverse events regardless of causality: 7.8%
  Headache, All Grades: 12%
  Headache, Grade 1-2: 42 (13) n (%)
  Headache, Grade 3: 1 (<1) n (%)
  Headache, Grade 3-4: <1%
  Headache, Grade 4: 0 n (%)
  Hemoglobin decreased, All Grades: 71%
  Hemoglobin decreased, Grade 3-4: 17%
  Hyperglycemia, All Grades: 59%
  Hyperglycemia, Grade 1-2: 46 (14) n (%)
  Hyperglycemia, Grade 3: 16 (5) n (%)
  Hyperglycemia, Grade 3-4: 8%
  Hyperglycemia, Grade 4: 0 n (%)
  Hyperglycemia, grade 3 or 4: 16 [5%] n [%]
  Hypertension, All Grades: 8%
  Hypertension, Grade 1-2: 14 (4) n (%)
  Hypertension, Grade 3: 12 (4) n (%)
  Hypertension, Grade 3-4: 3%
  Hypertension, Grade 4: 0 n (%)
  Hypertriglyceridemia, Grade 1-2: 31 (10) n (%)
  Hypertriglyceridemia, Grade 3: 7 (2) n (%)
  Hypertriglyceridemia, Grade 4: 3 (<1) n (%)
  Hypoalbuminemia, All Grades: 28%
  Hypoalbuminemia, Grade 3-4: <1%
  Hypomagnesaemia, Grade 1-2: 5 (2) n (%)
  Hypomagnesaemia, Grade 3: 0 n (%)
  Hypomagnesaemia, Grade 4: 0 n (%)
  Hypomagnesemia, All Grades: 4%
  Hypomagnesemia, Grade 3-4: <1%
  Hyponatremia, All Grades: 26%
  Hyponatremia, Grade 3-4: 6%
  Hypophosphatemia, All Grades: 36%
  Hypophosphatemia, Grade 3-4: 5%
  Hypothyroidism, All Grades: <1%
  Hypothyroidism, Grade 1-2: 1 (<1) n (%)
  Hypothyroidism, Grade 3: 1 (<1) n (%)
  Hypothyroidism, Grade 3-4: <1%
  Hypothyroidism, Grade 4: 0 n (%)
  Incidence of Grade ≥3 hemorrhagic events: 1.6%
  Insomnia, Grade 1-2: 33 (10) n (%)
  Insomnia, Grade 3: 1 (<1) n (%)
  Insomnia, Grade 4: 0 n (%)
  Lymphocytes decreased, All Grades: 39%
  Lymphocytes decreased, Grade 3-4: 12%
  Mucosal inflammation, All Grades: 23%
  Mucosal inflammation, Grade 1-2: 64 (20) n (%)
  Mucosal inflammation, Grade 3: 10 (3) n (%)
  Mucosal inflammation, Grade 3-4: 3%
  Mucosal inflammation, Grade 4: 1 (<1) n (%)
  Muscle spasms, All Grades: 5%
  Muscle spasms, Grade 1-2: 17 (5) n (%)
  Muscle spasms, Grade 3: 0 n (%)
  Muscle spasms, Grade 3-4: 0%
  Muscle spasms, Grade 4: 0 n (%)
  Nausea, All Grades: 28%
  Nausea, Grade 1-2: 92 (29) n (%)
  Nausea, Grade 3: 1 (<1) n (%)
  Nausea, Grade 3-4: <1%
  Nausea, Grade 4: 0 n (%)
  Overall incidence of adverse events regardless of causality: > 99%
  Pain in extremity, All Grades: 8%
  Pain in extremity, Grade 1-2: 31 (10) n (%)
  Pain in extremity, Grade 3: 1 (<1) n (%)
  Pain in extremity, Grade 3-4: <1%
  Pain in extremity, Grade 4: 0 n (%)
  Palmar-plantar erythrodysaesthesia syndrome, Grade 1-2: 16 (5) n (%)
  Palmar-plantar erythrodysaesthesia syndrome, Grade 3: 3 (<1) n (%)
  Palmar-plantar erythrodysaesthesia syndrome, Grade 4: 0 n (%)
  Palmar-plantar erythrodysesthesia syndrome, All Grades: 6%
  Palmar-plantar erythrodysesthesia syndrome, Grade 3-4: <1%
  Patients with dose reduced: 24%
  Patients with dose reductions: 25%
  Platelets decreased, All Grades: 27%
  Platelets decreased, Grade 3-4: <1%
  Proteinuria, All Grades: 9%
  Proteinuria, Grade 1-2: 28 (9) n (%)
  Proteinuria, Grade 3: 2 (<1) n (%)
  Proteinuria, Grade 3-4: <1%
  Proteinuria, Grade 4: 0 n (%)
  Pruritus, Grade 1-2: 48 (15) n (%)
  Pruritus, Grade 3: 1 (<1) n (%)
  Pruritus, Grade 4: 0 n (%)
  Pulmonary embolism: 0.3%
  Pyrexia, Grade 1-2: 57 (18) n (%)
  Pyrexia, Grade 3: 2 (<1) n (%)
  Pyrexia, Grade 4: 0 n (%)
  Rash, All Grades: 43%
  Rash, Grade 1-2: 92 (29) n (%)
  Rash, Grade 3: 2 (<1) n (%)
  Rash, Grade 3-4: <1%
  Rash, Grade 4: 0 n (%)
  Serious adverse events ≥grade 3: 129 (40%) n (%)
  Stomatitis, All Grades: 24%
  Stomatitis, Grade 1-2: 71 (22) n (%)
  Stomatitis, Grade 3: 7 (2) n (%)
  Stomatitis, Grade 3-4: 2%
  Stomatitis, Grade 4: 0 n (%)
  Study treatment discontinuation due to diarrhea: 0.9%
  Treatment discontinuation due to an adverse event not related to disease progression: 10%
  Treatment-emergent hypertension: 7.1%
  Treatment-emergent hypertension, Grade ≥3: 3.1%
  Triglycerides increased, All Grades: 73%
  Triglycerides increased, Grade 3-4: 13%
  Venous thromboembolism: 2.5%
  Vomiting, All Grades: 14%
  Vomiting, Grade 1-2: 44 (14) n (%)
  Vomiting, Grade 3: 3 (<1) n (%)
  Vomiting, Grade 3-4: <1%
  Vomiting, Grade 4: 0 n (%)
  Weight decreased, All Grades: 12%
  Weight decreased, Grade 1-2: 42(13) n (%)
  Weight decreased, Grade 3: 0 n (%)
  Weight decreased, Grade 3-4: 0%
  Weight decreased, Grade 4: 0 n (%)
  White blood cells decreased, All Grades: 31%
  White blood cells decreased, Grade 3-4: <1%
  Grade 5 adverse events assessed as treatment-related: two
